# Measurements: patent publication US20080027042A1, “Novel Aminopyridine Derivatives Having Aurora a Selective Inhibitory Action” (priority 2004, published 2008)
# Structures can show the parent of a compound that is named as a salt.
# What was measured:
# [1] = target: T1, Aurora A (Homo sapiens, UniProt O14965); assay: Aurora A inhibitory action (33P-ATP kinase assay, Kemptide substrate); assay type: biochemical; conditions: 20 μM ATP, 30° C., 20 minutes
# T1 construct: histidine tag (N); made in house; host or cells: Escherichia coli BL21-CodonPlus(DE3)-RIL
# T1 sequence (O14965 1-403): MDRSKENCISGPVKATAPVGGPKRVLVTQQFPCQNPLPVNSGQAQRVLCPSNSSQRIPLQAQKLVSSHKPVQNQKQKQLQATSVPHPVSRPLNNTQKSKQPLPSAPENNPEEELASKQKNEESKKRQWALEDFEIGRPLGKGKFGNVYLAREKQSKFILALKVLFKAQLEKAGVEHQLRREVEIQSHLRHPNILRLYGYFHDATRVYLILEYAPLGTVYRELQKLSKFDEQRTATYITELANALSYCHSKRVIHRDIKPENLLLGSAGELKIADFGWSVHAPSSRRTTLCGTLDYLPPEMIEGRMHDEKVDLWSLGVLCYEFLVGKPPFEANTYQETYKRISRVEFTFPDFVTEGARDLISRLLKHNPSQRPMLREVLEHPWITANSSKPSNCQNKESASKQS
# Source text: Aurora A Inhibitory Action
# (1) Purification of Aurora A
# (§1) cDNA of Aurora A having histidine tag fused at the amino terminal was integrated into an expression vector, which was then highly expressed in Escherichia coli BL2 1-CodonPlus(DE3)-RIL cells. The Escherichia coli cells were recovered and solubilized, and then the histidine-tagged Aurora A protein was adsorbed onto a nickel chelate column and eluted from the column with imidazole. The active fraction was desalted with a desalting column to give a pure enzyme.
# (2) Measurement of Activity of Aurora A
# For measurement of the activity of Aurora A, the substrate used was Kemptide (Lys-Arg-Arg-Ala-Ser-Lys-Gly) (SEQ.ID.NO.: 1), a synthetic peptide purchased from Sigma-Aldrich, Inc. [Certificate of analysis (Upstate, Inc.)].
# Reaction was conducted by a partial modification of a method by Upstate, Inc. [Kinase Profiler™ Assay Protocols]. The amount of the reaction liquid was 21.1 μL, and the composition of the reaction buffer (R2 buffer) was 50 mM Tris-hydrochloride buffer (pH 7.4)/15 mM magnesium acetate/0.2 mM ethylenediamine-N,N,N′,N′-tetraacetate (EDTA). To this, purified Aurora A, 100 μM of a substrate peptide, 20 μM of unlabeled adenosine triphosphate (ATP) and 0.5 μCi of [γ-^33P] labeled ATP (2,500 Ci/mmole or more) were added, and the mixture was reacted at 30° C. for 20 minutes. Then, 10 μL of 350 mM phosphate buffer was added to the reaction system to stop the reaction. The substrate peptide was adsorbed on a P81 paper filter 96-well plate and then washed with 130 mM phosphate buffer for several times. The radiation activity of the peptide was measured with a liquid scintillation counter. The [γ-^33P] labeled ATP was purchased from Amersham Biosciences Co., Ltd.
# (§2) The compound to be tested was added to the reaction system such that a dilution series of the compound in dimethylsulfoxide was first prepared, and 1.1 μL of this solution was added. A control was provided by adding 1.1 μL of DMSO to the reaction system.
# [2] = target: T2, Aurora B (Homo sapiens, UniProt Q96GD4); assay: Aurora B inhibitory action (33P-ATP kinase assay, Kemptide substrate); assay type: biochemical; conditions: 100 μM ATP, 30° C., 20 minutes
# T2 construct: histidine tag (N); made in house; host or cells: Escherichia coli BL21-CodonPlus(DE3)-RIL
# Source text: Aurora B Inhibitory Action
# (1) Purification of Aurora B
# as §1, with “of Aurora B having histidine” for “of Aurora A having histidine”, “Escherichia coli BL21-CodonPlus(DE3)-RIL cells. The” for “Escherichia coli BL2 1-CodonPlus(DE3)-RIL cells. The”
# (2) Measurement of Activity of Aurora B
# For measurement of the activity of Aurora B, the substrate used was Kemptide (Lys-Arg-Arg-Ala-Ser-Lys-Gly) (SEQ.ED.NO.: 1), a synthetic peptide purchased from Sigma-Aldrich, Inc. [Certificate of analysis (Upstate, Inc.)].
# Reaction was conducted by a partial modification of the method of activity measurement for Aurora A. The amount of the reaction liquid was 21.1 μL, and the composition of the reaction buffer (R2 buffer) was 50 mM Tris-hydrochloride buffer (pH 7.4)/15 mM magnesium acetate/0.2 mM ethylenediamine-N,N,N′,N′-tetraacetate (EDTA). To this, purified Aurora B, 100 μM of a substrate peptide, 100 μM of unlabeled adenosine triphosphate (ATP) and 1 μCi of [γ-^33P] labeled ATP (2,500 Ci/mmole or more) were added, and the mixture was reacted at 30° C. for 20 minutes. Then, 10 μL of 350 mM phosphate buffer was added to the reaction system to stop the reaction. The substrate peptide was adsorbed on a P81 paper filter 96-well plate and then washed with 130 mM phosphate buffer for several times. The radiation activity of the peptide was measured with a liquid scintillation counter. The [γ-^33P] labeled ATP was purchased from Amersham Biosciences Co., Ltd.
# as §2
# T2 sequence (Q96GD4 whole entry): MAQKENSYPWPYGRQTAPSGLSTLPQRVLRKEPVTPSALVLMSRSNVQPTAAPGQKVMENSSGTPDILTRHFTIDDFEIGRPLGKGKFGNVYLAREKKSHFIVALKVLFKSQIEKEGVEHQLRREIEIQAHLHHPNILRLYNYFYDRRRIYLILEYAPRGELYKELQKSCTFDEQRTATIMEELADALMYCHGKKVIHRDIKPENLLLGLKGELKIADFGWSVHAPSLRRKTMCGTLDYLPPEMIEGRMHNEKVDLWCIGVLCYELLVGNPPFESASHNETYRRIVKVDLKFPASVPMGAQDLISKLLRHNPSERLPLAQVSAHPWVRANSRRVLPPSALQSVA
Compound,IC50 [1] [nM],IC50 [2] [nM]
"CNC(=O)c1cc(CN2CCN(C(=O)c3cccc(Cl)c3F)CC2)nc(Nc2nccs2)c1 [Example 85, 2-((4-(3-chloro-2-fluorobenzoyl)piperazin-1-yl)methyl)-N-methyl-6-(thiazol-2-ylamino)isonicotinamide trifluoroacetate]",1,610
"NC(=O)c1cc(CN2CCN(C(=O)c3cccc(Cl)c3F)CC2)nc(Nc2nccs2)c1 [Example 87, 2-((4-(3-chloro-2-fluorobenzoyl)piperazin-1-yl)methyl)-6-(thiazol-2-ylamino)isonicotinamide trifluoroacetate]",1.2,1400
"O=C(NCCO)c1cc(CN2CCN(C(=O)c3cccc(Cl)c3F)CC2)nc(Nc2nccs2)c1 [Example 88, 2-((4-(3-chloro-2-fluorobenzoyl)piperazin-1-yl)methyl)-N-(2-hydroxyethyl)-6-(thiazol-2-ylamino)isonicotinamide trifluoroacetate]",0.72,1000
"O=C(c1cccc(Cl)c1F)N1CCN(Cc2cc(Cn3ccnn3)cc(Nc3nccs3)n2)CC1 [Example 90, 6-((4-(3-chloro-2-fluorobenzoyl)piperazin-1-yl)methyl)-N-thiazol-2-yl-4-(1H-1,2,3-triazol-1-ylmethyl)pyridin-2-amine trifluoroacetate]",1.5,860
"O=C(c1cccc(Cl)c1F)N1CCN(Cc2cc(Cn3cncn3)cc(Nc3nccs3)n2)CC1 [Example 92, 6-((4-(3-chloro-2-fluorobenzoyl)piperazin-1-yl)methyl)-N-thiazol-2-yl-4-(1H-1,2,4-triazol-1-ylmethyl)pyridin-2-amine trifluoroacetate]",0.93,830
"CS(=O)(=O)Cc1cc(CN2CCN(C(=O)c3cccc(Cl)c3F)CC2)nc(Nc2nccs2)c1 [Example 93, 6-((4-(3-chloro-2-fluorobenzoyl)piperazin-1-yl)methyl)-4-((methanesulfonyl)methyl)-N-thiazol-2-ylpyridin-2-amine]",0.36,250
"CN(C)Cc1cc(CN2CCN(C(=O)c3cccc(Cl)c3F)CC2)nc(Nc2nccs2)c1 [Example 94, 6-((4-(3-chloro-2-fluorobenzoyl)piperazin-1-yl)methyl)-4-((dimethylamino)methyl)-N-thiazol-2-ylpyridin-2-amine]",1.1,1100
"O=C(c1cccc(Cl)c1F)N1CCN(Cc2cc(N3CCCC3=O)cc(Nc3nccs3)n2)CC1 [Example 96, 1-(2-((4-(3-chloro-2-fluorobenzoyl)piperazin-1-yl)methyl)-6-(thiazol-2-ylamino)pyridin-4-yl)pyrrolidin-2-one]",0.57,690
"CN1CCN(c2cc(CN3CCN(C(=O)c4cccc(Cl)c4F)CC3)nc(Nc3nccs3)c2)C1=O [Example 98, 3-(2-((4-(3-chloro-2-fluorobenzoyl)piperazin-1-yl)methyl)-6-(thiazol-2-ylamino)pyridin-4-yl)-3-methylimidazolidin-2-one]",0.36,230
"O=C(c1cccc(Cl)c1F)N1CCN(Cc2cc(-c3nn[nH]n3)cc(Nc3nccs3)n2)CC1 [Example 105, 6-((4-(3-chloro-2-fluorobenzoyl)piperazin-1-yl)methyl)-4-(2H-tetrazol-5-yl)-N-thiazol-2-ylpyridin-2-amine]",1.4,1000
"O=C(c1cccc(Cl)c1F)N1CCN(Cc2cccc(Nc3ncc(F)s3)n2)CC1 [Example 112, 6-((4-(3-chloro-2-fluorobenzoyl)piperazin-1-yl)methyl)-N-(5-fluorothiazol-2-yl)pyridin-2-amine]",0.81,230

# More lines, in order of falling IC50 [1], values ahead:
IC50 [1] [nM],IC50 [2] [nM],Compound
2.6,1300,"O=C(c1cccc(F)c1F)N1CCN(Cc2cc(NCC(F)F)cc(Nc3nccs3)n2)CC1 [Example 100, 6-((4-(2,3-difluorobenzoyl)piperazin-1-yl)methyl)-N4-(2,2-difluoroethyl)-N^2-thiazol-2-ylpyridine-2,4-diamine]"
1.4,1200,"O=C(c1cccc(Cl)c1F)N1CCN(Cc2cc(Cn3nccn3)cc(Nc3nccs3)n2)CC1 [Example 91, 6-((4-(3-chloro-2-fluorobenzoyl)piperazin-1-yl)methyl)-N-thiazol-2-yl-4-(2H-1,2,3-triazol-2-ylmethyl)pyridin-2-amine trifluoroacetate]"
0.76,250,"O=C(c1cccc(F)c1F)N1CCN(Cc2cc(N3CCOCC3)cc(Nc3nccs3)n2)CC1 [Example 103, 6-((4-(2,3-difluorobenzoyl)piperazin-1-yl)methyl)-4-morpholin-4-yl-N-thiazol-2-ylpyridin-2-amine]"
0.72,400,"O=C(c1cc(CN2CCN(C(=O)c3cccc(Cl)c3F)CC2)nc(Nc2nccs2)c1)N1CCCC1 [Example 84, 6-((4-(3-chloro-2-fluorobenzoyl)piperazin-1-yl)methyl)-4-(pyrrolidin 1-ylcarbonyl)-N-thiazol-2-ylpyridin-2-amine trifluoroacetate]"
0.62,830,"O=C(c1cccc(Cl)c1F)N1CCN(Cc2cc(N3CCOC3=O)cc(Nc3nccs3)n2)CC1 [Example 97, 3-(2-((4-(3-chloro-2-fluorobenzoyl)piperazin-1-yl)methyl)-6-(thiazol-2-ylamino)pyridin-4-yl)-1,3-oxazolidin-2-one]"
0.59,750,"Cc1noc(-c2cc(CN3CCN(C(=O)c4cccc(Cl)c4F)CC3)nc(Nc3nccs3)c2)n1 [Example 110, 6-((4-(3-chloro-2-fluorobenzoyl)piperazin-1-yl)methyl)-4-(3-methyl-1,2,4-oxadiazol-5-yl)-N-thiazol-2-ylpyridin-2-amine]"
0.42,520,"Cc1nc(-c2cc(CN3CCN(C(=O)c4cccc(Cl)c4F)CC3)nc(Nc3nccs3)c2)no1 [Example 109, 6-((4-(3-chloro-2-fluorobenzoyl)piperazin-1-yl)methyl)-4-(5-methyl-1,2,4-oxadiazol-3-yl)-N-thiazol-2-ylpyridin-2-amine]"
